US7732451B2, “Naphthalene-containing melanocortin receptor-specific small molecule” (Palatin Technologies, Inc., priority 2002, dated 2010)
Like-named read-outs stand apart in the source and are kept apart here.

Assays:
[1] = target: T1, MC1-R (B-16 mouse melanoma cells) (Mus musculus, UniProt Q01727); assay: competitive inhibition binding assay, 125I-NDP-α-MSH, membranes; settings: for inhibition at 1 µM: 1 μM compound, average of triplicates, results less than 0% reported as 0%
T1 construct: B-16 mouse melanoma cells (containing MC1-R); endogenous in cells; host or cells: B-16 mouse melanoma cells
T1 sequence (Q01727 whole entry): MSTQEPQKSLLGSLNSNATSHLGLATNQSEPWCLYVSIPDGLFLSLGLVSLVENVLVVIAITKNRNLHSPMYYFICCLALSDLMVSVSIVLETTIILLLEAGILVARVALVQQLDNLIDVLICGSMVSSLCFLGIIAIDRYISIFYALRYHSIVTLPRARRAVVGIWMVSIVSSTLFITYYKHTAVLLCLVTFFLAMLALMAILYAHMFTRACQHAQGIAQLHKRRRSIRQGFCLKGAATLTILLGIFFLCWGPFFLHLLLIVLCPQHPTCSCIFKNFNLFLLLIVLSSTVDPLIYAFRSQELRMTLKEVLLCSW
Description: (§1) A competitive inhibition binding assay was conducted using membranes prepared from hMC3-R, hMC4-R, hMC5-R, and B-16 mouse melanoma cells (containing MC1-R) using 0.4 nM ^125I-NDP-α-MSH (New England Nuclear, Boston, Mass., USA) in 50 mM HEPES buffer containing 1 mM MgCl2, 2 mM CaCl2, and 5 mM KCl, at pH 7.2. The assay tube also contained a chosen concentration of the test compound of this invention, for determining its efficacy in inhibiting the binding of ^125I-NDP-α-MSH to its receptor.
(§2) Incubation was for 90 minutes at room temperature, after which the assay mixture was filtered and the membranes washed three times with ice cold buffer. The filter was dried and counted in a gamma counter for remaining radioactivity bound to the membranes. 100% specific binding was defined as the difference in radioactivity (cpm) bound to cell membranes in the absence and presence of 1 μM α-MSH. […] Each assay was conducted in triplicate and the actual mean values are described. The Ki (nM) of certain compounds of the invention were determined.

[2] = target: T2, hMC3-R (Homo sapiens, UniProt P41968); assay: as above; settings: for inhibition at 1 µM: 1 μM compound, average of triplicates, read-out: Inhibition at 1 μM MC3-R
T2 construct: expressed in transfected cells
T2 sequence (P41968 whole entry): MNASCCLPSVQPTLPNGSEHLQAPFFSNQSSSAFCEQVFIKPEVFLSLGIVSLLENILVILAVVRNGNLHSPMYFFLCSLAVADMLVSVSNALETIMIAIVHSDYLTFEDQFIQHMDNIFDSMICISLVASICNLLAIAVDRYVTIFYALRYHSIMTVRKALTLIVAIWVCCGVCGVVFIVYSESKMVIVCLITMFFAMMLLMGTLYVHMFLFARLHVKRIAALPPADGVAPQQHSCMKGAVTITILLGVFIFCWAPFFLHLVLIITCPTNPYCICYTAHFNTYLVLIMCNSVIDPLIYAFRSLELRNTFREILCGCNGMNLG
Description: as §1, §2

[3] = target: T3, hMC4-R (Homo sapiens, UniProt P32245); assay: as above; settings: for inhibition at 1 µM: 1 μM compound, average of triplicates, read-out: Inhibition at 1 μM MC4-R; for Ki: read-out: Ki (nM) MC4-R
T3 construct: expressed in transfected cells
T3 sequence (P32245 whole entry): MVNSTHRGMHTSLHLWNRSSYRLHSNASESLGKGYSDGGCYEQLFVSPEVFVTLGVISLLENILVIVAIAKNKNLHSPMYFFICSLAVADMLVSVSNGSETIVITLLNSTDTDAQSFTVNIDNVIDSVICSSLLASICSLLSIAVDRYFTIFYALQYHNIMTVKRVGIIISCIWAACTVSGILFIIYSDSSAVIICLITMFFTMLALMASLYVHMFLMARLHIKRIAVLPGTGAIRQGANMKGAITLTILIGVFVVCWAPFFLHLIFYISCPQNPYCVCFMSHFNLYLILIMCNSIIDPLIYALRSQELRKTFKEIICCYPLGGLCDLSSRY
Description: as §1, §2

[4] = target: T4, hMC5-R (Homo sapiens, UniProt P33032); assay: as above; settings: for inhibition at 1 µM: 1 μM compound, average of triplicates, read-out: Inhibition at 1 μM MC5-R; for Ki: read-out: Ki (nM) MC5-R
T4 construct: expressed in transfected cells
T4 sequence (P33032 whole entry): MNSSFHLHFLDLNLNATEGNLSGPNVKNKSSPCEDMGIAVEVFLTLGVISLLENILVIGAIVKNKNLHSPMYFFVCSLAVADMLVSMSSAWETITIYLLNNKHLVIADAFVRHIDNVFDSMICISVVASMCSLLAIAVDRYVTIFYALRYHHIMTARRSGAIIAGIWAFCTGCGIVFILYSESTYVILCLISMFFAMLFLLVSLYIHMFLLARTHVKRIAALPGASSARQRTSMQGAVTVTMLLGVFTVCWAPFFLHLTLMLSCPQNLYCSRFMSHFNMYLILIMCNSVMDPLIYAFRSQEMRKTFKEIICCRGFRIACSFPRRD
Description: as §1, §2

[5] = target: T1, MC1-R (B-16 mouse melanoma cells); assay: cAMP assay for agonist/antagonist status; assay type: cell-based; settings: antagonism = inhibition of α-MSH-induced cAMP
Description: (§3) Functional evaluation of compounds at melanocortin receptors was performed by measuring the accumulation of intracellular cAMP in HEK-293 cells expressing MC3-R, MC4-R or MC5-R, and in B-16 mouse melanoma cells (containing MC1-R). Cells, suspended in Earle's Balanced Salt Solution containing 10 mM HEPES, pH 7.5, 5 mM MgCl2, 1 mM glutamine, 0.1% albumin and 0.6 mM 3-isobutyl-1-methyl-xanthine, a phosphodiesterase inhibitor, were plated in 96 well plates at a density of 0.5×10^5 cells per well. Cells were incubated with the test compounds in the presence or absence of α-MSH for 1 hour at 37° C. cAMP levels were measured by EIA (Amersham) in the cell lysates. Data analysis and EC50 values were determined using nonlinear regression analysis with Prism Graph-Pad software.
(§4) The agonist/antagonist status with respect to MC4-R of certain compounds of the invention was determined. Antagonistic activity was determined by measuring the inhibition of α-MSH-induced cAMP levels following exposure to the compounds as in Example 2.

[6] = target: T5, MC4-R (HEK-293 cells expressing MC4-R) (Homo sapiens, UniProt P32245); assay: cAMP assay for agonist/antagonist status; assay type: cell-based; settings: antagonism = inhibition of α-MSH-induced cAMP
T5 construct: expressed in transfected cells; host or cells: HEK-293
T5 sequence (P32245 whole entry): as the sequence (P32245 whole entry) above
Description: as §3, §4

[7] = target: T6, MC5-R (HEK-293 cells expressing MC5-R) (Homo sapiens, UniProt P33032); assay: cAMP assay for agonist/antagonist status; assay type: cell-based; settings: antagonism = inhibition of α-MSH-induced cAMP
T6 construct: expressed in transfected cells; host or cells: HEK-293
T6 sequence (P33032 whole entry): as the sequence (P33032 whole entry) above
Description: as §3, §4

[8] = penile erection (PE) studies in male rats; assay type: in vivo, rat; settings: IV
Description: The ability of compounds to induce penile erection (PE) in male rats was evaluated with selected compounds. Male Sprague-Dawley rats weighing 200-250 g were kept on a 12 hour on/off light cycle with food and water ad libitum. All behavioral studies were performed between 10 a.m. and 5 p.m. Groups of 4-8 rats were treated with compounds at a variety of doses via intravenous (IV) or intracerebroventricular (ICV) routes. Immediately after treatment, rats were placed into individual polystyrene cages (27 cm long, 16 cm wide, and 25 cm high) for behavioral observation. The iv and icv treated rats were observed respectively for 30 minutes and 120 min and the number of yawns, grooming bouts and PEs were recorded in 10-minute bins.

[9] = ICV feeding studies, change in food intake and body weight; assay type: in vivo, rat; settings: 1 nmol, male Sprague-Dawley rats; for change in weight: 24 hour
Description: (§5) Change in food intake and body weight was evaluated for selected compounds. Male Sprague-Dawley rats weighing ˜300 g at the beginning of the experiment were kept on a 12 hour on/off light cycle. Lights out was adjusted to 12:00 p.m. to allow for dosing just prior to the start of their dark period. Rats (8-12/group) were fed powdered chow and water ad libitum. For 1 week before treatment, 24-hour food intake and body weight change was recorded to assess a baseline for the group during vehicle treatment. The rats were dosed ICV with vehicle or selected compounds (1-3 nmol). The changes in body weight and food intake for the 24 hour period after dosing were determined. The changes in body weight and food intake for the 48 hour period, and in same cases for 72 hours as well, after dosing were also measured to determined reversal of changes in body weight and food intake effect back to baseline.

[10] = IV feeding studies, change in food intake and body weight; assay type: in vivo, rat; settings: 3 μg/Kg, male Sprague-Dawley rats
Description: as §5, with “The rats were dosed ICV with vehicle or selected compounds (1-3 nmol).” left out

[11] = 1 μg/Kg, 30 minutes observation, stated below baseline

inhibition at 1 µM [1] [%] | inhibition at 1 µM [2] [%] | inhibition at 1 µM [3] [%] | inhibition at 1 µM [4] [%] | agonist/antagonist status as to MC1-R [5] | agonist/antagonist status as to MC5-R [7] | Ki ([1]; bound printed in μM in a Ki (nM) table, read-out: Ki MC1-R) [nM] | Ki ([2]; bound printed in μM in a Ki (nM) table, read-out: Ki MC3-R) [nM] | Structure (SMILES) | Ki ([1]; read-out: Ki (nM) MC1-R) [nM] | Ki ([2]; read-out: Ki (nM) MC3-R) [nM] | Ki [3] [nM] | Ki [4] [nM] | agonist/antagonist status as to MC4-R [6] | mean PE [8, 11] | mean PE ([8]; 50 μg/Kg, stated not statistically relevant) | 24 hour change in food intake [9] [g] | change in weight [9] | 24 hour change in food intake [10] [g] | change in weight ([10]; 24 hour) [g]
14 | 32 | 95 | 36 | – | – | – | – | C[C@@H]1CN(CCc2ccc3ccccc3c2)C[C@H](CCCNC(=N)N)N1C(=O)[C@H](N)Cc1ccc(Cl)cc1Cl [Example 17 (R)-CH3, N-{3-[1-[2(R)-Amino-3-(2,4-dichloro-phenyl)-propionyl]-6(R)-methyl-4-(2-naphthalen-2-yl-ethyl)-piperazin-2(S)-yl]-propyl}-guanidine] | – | – | – | – | – | – | – | – | – | – | –
25 | 33 | 91 | 40 | – | – | – | – | N=C(N)NCCC[C@H]1CN(CCOc2ccc3ccccc3c2)CCN1C(=O)[C@@H](N)Cc1ccc(Cl)cc1Cl [Example 18] | – | – | – | – | – | – | – | – | – | – | –
3 | 47 | 97 | 64 | agonist | inactive | – | – | C[C@H]1CN(CCc2ccc3ccccc3c2)C[C@H](CCCNC(=N)N)N1C(=O)[C@H](N)Cc1ccc(Cl)cc1Cl [Example 17 (S)-CH3, N-{3-[1-[2(R)-Amino-3-(2,4-dichloro-phenyl)-propionyl]-6(S)-methyl-4-(2-naphthalen-2-yl-ethyl)-piperazin-2(S)-yl]-propyl}-guanidine] | 3180 | 551 | 21 | 602 | agonist | – | – | – | – | – | –
37 | 73 | 100 | 72 | – | – | – | – | Cc1ccc(C[C@@H](N)C(=O)N2C[C@@H](C)N(CCc3ccc4ccccc4c3)C[C@@H]2CCCNC(=N)N)c(Cl)c1 [Example 13, N-{3-[1-[2(R)-Amino-3-(2-chloro-4-methyl-phenyl)-propionyl]-5(R)-methyl-4-(2-naphthalen-2-yl-ethyl)-piperazin-2(S)-yl]-propyl}-guanidine] | 907 | 227 | 5 | 527 | antagonist | – | – | -1.6 | -3.9 g | – | –
– | 18 | 92 | 51 | – | – | – | – | NCCCC[C@H]1C(=O)N(CCc2ccc3ccccc3c2)CCN1C(=O)[C@@H](Cc1ccc(Cl)cc1Cl)NC(=O)[C@@H]1CC[C@H](c2ccccc2)N1 [Example 7] | – | – | – | – | – | – | – | -7.77 | -5.88 g | – | –
30 | 46 | 96 | 60 | antagonist | agonist | > 1000 | > 1000 | NCCCC[C@H]1C(=O)N(CCc2ccc3ccccc3c2)CCN1C(=O)[C@@H](Cc1ccc(Cl)cc1Cl)NC(=O)/C=C/c1ccccc1 [Example 8] | – | – | 13 | 410 | antagonist | 0.13 | – | -10.1 | -9.91 g | – | –

Structure (SMILES) | inhibition at 1 µM [1] [%] | inhibition at 1 µM [2] [%] | inhibition at 1 µM [3] [%] | inhibition at 1 µM [4] [%] | agonist/antagonist status as to MC1-R [5] | agonist/antagonist status as to MC5-R [7] | Ki ([1]; bound printed in μM in a Ki (nM) table, read-out: Ki MC1-R) [nM] | Ki ([2]; bound printed in μM in a Ki (nM) table, read-out: Ki MC3-R) [nM] | Ki ([1]; read-out: Ki (nM) MC1-R) [nM] | Ki ([2]; read-out: Ki (nM) MC3-R) [nM] | Ki [3] [nM] | Ki [4] [nM] | agonist/antagonist status as to MC4-R [6] | mean PE [8, 11] | mean PE ([8]; 50 μg/Kg, stated not statistically relevant) | 24 hour change in food intake [9] [g] | change in weight [9] | 24 hour change in food intake [10] [g] | change in weight ([10]; 24 hour) [g]
NCCCC[C@H]1C(=O)N(CCc2ccc3ccccc3c2)CCN1C(=O)[C@@H](Cc1ccc(Cl)cc1Cl)NC(=O)c1ccc(Oc2ccccc2)cc1 [Example 10] | – | 51 | 99 | 51 | antagonist | agonist | – | – | 915 | 150 | 1 | 282 | antagonist | 0.14 | 0.25 | -0.6 | -1.73 g | – | –
C[C@@H]1CN(C(=O)[C@H](N)Cc2ccc(Cl)cc2Cl)[C@@H](CCCNC(=N)N)CN1CCc1ccc2ccccc2c1 [Example 11, N-{3-[1-[2(R)-Amino-3-(2,4-dichloro-phenyl)-propionyl]-5(R)-methyl-4-(2 naphthalen-2-yl-ethyl)-piperazin-2(S)-yl]-propyl}-guanidine] | 44 | 82 | 100 | 78 | – | – | – | – | 1130 | 95 | 2 | 362 | antagonist | – | – | -2.6 | -0.3 g | – | –
Cc1ccc(C[C@@H](N)C(=O)N2C[C@@H](C)N(CCc3ccc4ccccc4c3)C[C@@H]2CCCNC(=N)N)c(C)c1 [Example 16, N-{3-[1-[2(R)-Amino-3-(2,4-dimethyl-phenyl)-propionyl]-5(R)-methyl-4-(2-naphthalen-2-yl-ethyl)-piperazin-2(S)-yl]-propyl}-guanidine] | 22 | 67 | 98 | 73 | – | – | – | – | 1220 | 157 | 11 | 717 | agonist | – | – | -2.6 | -5 g | -7.3 | -6.3
Cc1cc(Cl)ccc1C[C@@H](N)C(=O)N1C[C@@H](C)N(CCc2ccc3ccccc3c2)C[C@@H]1CCCNC(=N)N [Example 14, N-{3-[1-[2(R)-Amino-3-(4-chloro-2-methyl-phenyl)-propionyl]-5(R)-methyl-4-(2-naphthalen-2-yl-ethyl)-piperazin-2(S)-yl]-propyl}-guanidine] | 23 | 83 | 100 | 82 | – | – | – | – | 1050 | 99 | 1 | 219 | partial agonist | – | – | -5.5 | no change | – | –
